Laboratory results taken from PubChem BioAssay (NCI).
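Results reflect a 48-hour exposure of cells in 96-well plates to compound at five concentrations. At the GI50, growth is halved. TGI marks complete inhibition of growth.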

How the values were obtained:
Test in all cases: NCI tumour cell line growth inhibition, 48 h
[1] = system: HOP-92 NSCLC
[2] = system: ACHN renal
[3] = system: HS 578T breast
[4] = system: HT29 colon
[5] = system: SNB-75 CNS
[6] = system: HCT-116 colon
[7] = system: SNB-19 CNS
[8] = system: TK-10 renal
[9] = system: SK-OV-3 ovarian
[10] = system: HCT-15 colon
[11] = system: MOLT-4 leukemia
[12] = system: CCRF-CEM leukemia
[13] = system: MCF7 breast
[14] = system: OVCAR-8 ovarian
[15] = system: KM12 colon
[16] = system: DU-145 prostate
[17] = system: RXF 393 renal
[18] = system: SF-539 CNS
[19] = system: NCI-H522 lung
[20] = system: K-562 leukemia
[21] = system: SK-MEL-2 melanoma
[22] = system: SK-MEL-28 melanoma
[23] = system: SW-620 colon
[24] = system: HL-60(TB) leukemia
[25] = system: SN12C renal
[26] = system: MALME-3M melanoma
[27] = system: COLO 205 colon
[28] = system: A549 NSCLC
[29] = system: IGROV1 ovarian
[30] = system: RPMI-8226 leukemia
[31] = system: MDA-MB-435
[32] = system: NCI-H23 lung
[33] = system: HCC-2998 colon
[34] = system: U251 CNS
[35] = system: SK-MEL-5 melanoma
[36] = system: MDA-MB-231 breast
[37] = system: 786-0 renal
[38] = system: BT-549 breast
[39] = system: PC-3 prostate
[40] = system: UO-31 renal
[41] = system: SF-268 CNS
[42] = system: A498 renal
[43] = system: CAKI-1 renal
[44] = system: OVCAR-4 ovarian
[45] = system: UACC-62 melanoma
[46] = system: UACC-257 melanoma
[47] = system: SR leukemia
[48] = system: T-47D breast
[49] = system: OVCAR-3 ovarian
[50] = system: LOX IMVI melanoma
[51] = system: M14 melanoma
[52] = system: NCI/ADR-RES ovarian
[53] = system: HOP-62 NSCLC
[54] = system: NCI-H460 lung
[55] = system: SF-295 CNS
[56] = system: OVCAR-5 ovarian

Cc1cccc(-n2cnc3cc(C(=O)N4CCCCC4)ccc32)c1
GI50 [1]: 41.4 µM
TGI [1]: > 100 µM
GI50 [2]: > 100 µM
TGI [2]: > 100 µM
GI50 [3]: 72.7 µM
TGI [3]: > 100 µM
GI50 [4]: > 100 µM
TGI [4]: > 100 µM
GI50 [5]: 30 µM
TGI [5]: > 100 µM
GI50 [6]: > 100 µM
TGI [6]: > 100 µM
GI50 [7]: 48.8 µM
TGI [7]: > 100 µM
GI50 [8]: > 100 µM
TGI [8]: > 100 µM
GI50 [9]: > 100 µM
TGI [9]: > 100 µM
GI50 [10]: 56.6 µM
TGI [10]: > 100 µM
GI50 [11]: > 100 µM
TGI [11]: > 100 µM
GI50 [12]: > 100 µM
TGI [12]: > 100 µM
GI50 [13]: 48.4 µM
TGI [13]: > 100 µM
GI50 [14]: 91.9 µM
TGI [14]: > 100 µM
GI50 [15]: > 100 µM
TGI [15]: > 100 µM
GI50 [16]: > 100 µM
TGI [16]: > 100 µM
GI50 [17]: 23.9 µM
TGI [17]: > 100 µM
GI50 [18]: 85.5 µM
TGI [18]: > 100 µM
GI50 [19]: > 100 µM
TGI [19]: > 100 µM
GI50 [20]: 59.9 µM
TGI [20]: > 100 µM
GI50 [21]: > 100 µM
TGI [21]: > 100 µM
GI50 [22]: 59.1 µM
TGI [22]: > 100 µM
GI50 [23]: > 100 µM
TGI [23]: > 100 µM
GI50 [24]: > 100 µM
TGI [24]: > 100 µM
GI50 [25]: > 100 µM
TGI [25]: > 100 µM
GI50 [26]: > 100 µM
TGI [26]: > 100 µM
GI50 [27]: 49.9 µM
TGI [27]: > 100 µM
GI50 [28]: 85.5 µM
TGI [28]: > 100 µM
GI50 [29]: > 100 µM
TGI [29]: > 100 µM
GI50 [30]: > 100 µM
TGI [30]: > 100 µM
GI50 [31]: > 100 µM
TGI [31]: > 100 µM
GI50 [32]: > 100 µM
TGI [32]: > 100 µM
GI50 [33]: > 100 µM
TGI [33]: > 100 µM
GI50 [34]: 62.6 µM
TGI [34]: > 100 µM
GI50 [35]: 20 µM
TGI [35]: 53.1 µM
GI50 [36]: 92.2 µM
TGI [36]: > 100 µM
GI50 [37]: > 100 µM
TGI [37]: > 100 µM
GI50 [38]: 97 µM
TGI [38]: > 100 µM
GI50 [39]: > 100 µM
TGI [39]: > 100 µM
GI50 [40]: 29.8 µM
TGI [40]: > 100 µM
GI50 [41]: > 100 µM
TGI [41]: > 100 µM
GI50 [42]: 51.3 µM
TGI [42]: > 100 µM
GI50 [43]: > 100 µM
TGI [43]: > 100 µM
GI50 [44]: 46 µM
TGI [44]: > 100 µM
GI50 [45]: 48 µM
TGI [45]: > 100 µM
GI50 [46]: > 100 µM
TGI [46]: > 100 µM
GI50 [47]: > 100 µM
TGI [47]: > 100 µM
GI50 [48]: 28 µM
TGI [48]: 93.1 µM
GI50 [49]: 54.9 µM
TGI [49]: > 100 µM
GI50 [50]: > 100 µM
TGI [50]: > 100 µM
GI50 [51]: > 100 µM
TGI [51]: > 100 µM
GI50 [52]: 37.9 µM
TGI [52]: > 100 µM
GI50 [53]: > 100 µM
TGI [53]: > 100 µM
GI50 [54]: > 100 µM
TGI [54]: > 100 µM
GI50 [55]: 65.1 µM
TGI [55]: > 100 µM
GI50 [56]: > 100 µM
TGI [56]: > 100 µM
